Source: PMC10943695, “Neutrophil elastase as a versatile cleavage enzyme for activation of αvβ3 integrin-targeted small molecule drug conjugates with different payload classes in the tumor microenvironment” (Frontiers in Pharmacology, 2024)
“Also recorded” adds a separate entry of the source. Where two headings read alike, the source gives them in different places. Where a SMILES comes first, the peptide text is derived from it. [ ]: non-standard residue; d: D form. The star is where a group is joined. Dolaproine = CO[C@@H]([C@@H]1CCCN1)[C@@H](C)C(=O)O; Dil = CC[C@H](C)[C@H](NC)[C@@H](CC(=O)O)OC; X1 = C[C@@H](N*)[C@@H](O)c1ccccc1; NMeV = CN[C@H](C(=O)O)C(C)C

Columns and labels:
786-O (human RCC) cells = assay: In vitro cytotoxicity, MTT assay, in absence or presence of neutrophil elastase; assay type: cell-based; details: Homo sapiens, 786-0, 72 h exposure
Experimental: (§1) 786-O (human RCC), HT-29 (human CRC), NCI-H292 (human NSCLC), NCI-H69 (human SCLC), MX-1 (human TNBC), and SUM149PT (human IBC) cells were acquired from ATCC and cultured according to the provider’s instructions.
(§2) The in vitro cytotoxicity of the SMDCs in comparison to the respective payloads was tested in a panel of cancer cell lines after a 72 h continuous exposure in presence or absence of 20 nM neutrophil elastase using MTT assays (ATCC). IC50 values were determined as the concentration of compound required for 50% inhibition of cell viability.

HT-29 (human CRC) cells = assay: as above; assay type: cell-based; details: Homo sapiens, HT-29, 72 h exposure
Experimental: as §1, §2

[1] = system: NCI-H292 (human NSCLC) cells; assay: as above; assay type: cell-based; details: Homo sapiens, NCI-H292, 72 h exposure
Experimental: as §1, §2

[2] = system: SUM149PT (human IBC) cells; assay: as above; assay type: cell-based; details: Homo sapiens, SUM149PT, 72 h exposure
Experimental: as §1, §2

[3] = Caco-2 cell permeability flux assay; assay type: in vitro ADME; details: human, 37 °C, mean of at least two assays
Experimental: The cell permeability of the payloads released by the SMDCs 5 and 6, namely, compounds 10 and 11 were investigated with an in vitro flux assay using Caco-2 cells ([Troutman and Thakker, 2003]). The compounds were dissolved in HEPES buffer and applied (in triplicates) to the cells either on the apical (A) or basolateral (B) side of the Caco-2 monolayer at a final concentration of 2 μM. Before and after incubation for 2 h at 37 °C, samples were taken from both compartments and analyzed by LC-MS/MS. The apparent permeability coefficient (Papp) was calculated for both the apical to basolateral (A → B) and the basolateral to apical (B → A) direction as described by Schwab et al. ([Schwab et al., 2003]).

[4] = Intravenous pharmacokinetics in rat; assay type: in vivo; details: for Plasma concentration of released payload: rat plasma after 0.5 mg/kg i.v. of the parent SMDC (4, 5, 6), LLOQ < 0.0005 µM; for AUC(0-inf) / half-life / clearance / Vd: rat, in vivo, iv; for clearance: read-out: CLp; for Vd: read-out: Vss
Experimental: Pharmacokinetic properties of SMDCs and their respective payloads were characterized in rats. Briefly, male Wistar rats (n = 3) were given a 0.5 mg/kg dose of SMDC formulated in plasma/DMSO (99:1) intravenously (i.v.) via tail vein. Blood was collected at pre-dose, 2, 5, 15, 30, 45, 60 min, 2, 4, 7, 24 h post-dose and then processed to plasma. Plasma was frozen at < −20°C until sample analysis. Plasma samples were analyzed for concentrations of SMDCs and their respective released payloads by LC-MS/MS.
Pharmacokinetics of SMDCs and their respective payloads from in vivo studies were determined using mean concentration-time profiles. All pharmacokinetic parameters were calculated by non-compartmental methods as previously described ([Perrier and Gibaldi, 1982]).

[5] = Hydrolytic stability in PBS buffer at pH 7.4; assay type: physicochemical; details: PBS pH 7.4, 37 °C, 24 h
Experimental: For hydrolytic stability measurement, compounds 2, 3, 4, 5 and 6 (0.15 mg) were dissolved in acetonitrile/DMSO (4:1, 0.5 mL) and 1 mL of PBS buffer at pH 7.4 was then added. The sample solution was analyzed by HPLC to determine the amount of the test compound and the formation of degradation products over a period of 24 h at 37 °C.

Stability in rat plasma = assay type: in vitro ADME; details: 37 °C
Experimental: The SMDC compounds 2, 3, 4, 5 and 6 (1 mg) were dissolved in acetonitrile/DMSO (1:1, 0.5 mL). While vortexing, 20 µL of this solution was added to 1 mL rat plasma at 37 °C. The incubation was stopped at respective time intervals by adding acetonitrile/buffer pH 3 (80:20) and the test compounds and formation of degradation products were analyzed by LC and LC/MS.

[6] = Stability in human plasma; assay type: in vitro ADME; details: 37 °C
[7] = biological target: T1, human neutrophil elastase (Homo sapiens, UniProt P08246); assay: Human neutrophil elastase cleavability assay; assay type: biochemical; details: 5 µM SMDC, 20, 40, 60 nM NE, 1 h, 37°C
T1 sequence (P08246 30-267): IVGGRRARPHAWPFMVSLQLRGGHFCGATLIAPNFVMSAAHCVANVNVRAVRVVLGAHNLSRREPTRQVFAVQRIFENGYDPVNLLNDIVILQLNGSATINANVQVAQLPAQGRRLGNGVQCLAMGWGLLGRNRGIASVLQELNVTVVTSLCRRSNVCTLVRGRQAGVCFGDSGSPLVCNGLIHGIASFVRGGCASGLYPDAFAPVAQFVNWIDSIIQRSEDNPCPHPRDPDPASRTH
Experimental: For the NE cleavability assay, the SMDC test compound was added to buffer (150 mM NaCl, 10 mM CaCl2, 0.05% BSA) to a final concentration of 5 µM (0.5% DMSO). The reaction was started by adding different concentrations of human NE (0, 20, 40, 60 nM) to the reaction vials. After incubation for 1 h at 37°C, the enzymatic reaction was stopped by precipitation in 50% ACN. Subsequently, the samples were subjected to HPLC-MS analysis to determine the concentration of test compound and of its metabolite.

MX-1 TNBC xenograft = assay: In vivo efficacy in MX-1 TNBC xenograft model; details: 20 mg/kg i.v.
Experimental: For in vivo efficacy studies, immunocompromised mice were inoculated subcutaneously with 1x10^6 MX-1 TNBC cells in 50% Matrigel/50% Media on day 0. Treatment was started at a mean tumor volume of 75 mm^3 in the MX-1 model (n = 12/group: Compound 2, 20 mg/kg i. v. in a 2 days on/5 days off and in a once weekly (QW) schedule. VIP236, 20 mg/kg i. v. QW). Tumor and body weight were measured at least twice weekly.

[8] = with 20 nM neutrophil elastase, read-out: IC50 786–0 + neutrophil elastase
[9] = without neutrophil elastase, read-out: IC50 786–0
[10] = with 20 nM neutrophil elastase, read-out: IC50 HT29 + neutrophil elastase
[11] = without neutrophil elastase, read-out: IC50 HT29
[12] = with 20 nM neutrophil elastase, read-out: IC50 NCI-H292 + neutrophil elastase
[13] = without neutrophil elastase, read-out: IC50 NCI-H292
[14] = with 20 nM neutrophil elastase, read-out: IC50 SUM149 PT + neutrophil elastase
[15] = without neutrophil elastase, read-out: IC50 SUM149PT
[16] = male Wistar rats, 0.5 mg/kg SMDC i.v., plasma

Row | Papp A→B at 2 h, 2 μM [3] [×10⁻⁶ cm/s] | Papp B→A at 2 h, 2 μM [3] [×10⁻⁶ cm/s] | efflux ratio at 2 h, 2 μM [3] | Compound | IC50 (786-O (human RCC) cells; [8]) [nM] | IC50 (786-O (human RCC) cells; [9]) [nM] | IC50 (HT-29 (human CRC) cells; [10]) [nM] | IC50 (HT-29 (human CRC) cells; [11]) [nM] | IC50 [1, 12] [nM] | IC50 [1, 13] [nM] | IC50 [2, 14] [nM] | IC50 [2, 15] [nM] | Plasma concentration of released payload [4] | Stability in buffer pH 7.4 [5] | Stability in rat plasma (Stability in rat plasma) | Stability in human plasma [6] | Cleavage by human NE [7] | AUC(0-inf) [4, 16] [µM·h] | half-life [4, 16] [h] | clearance [4, 16] [mL/min/kg] | Vd [4, 16] [L/kg] | further results
1 | 0.38 | 18 | 129 | CC(C)(C)[C@H](c1cc(-c2cc(F)ccc2F)cn1Cc1ccccc1)N(CCCN)C(=O)CO [Compound 10, N-(3-aminopropyl)-N-{(1R)-1-[1-benzyl-4-(2,5-difluorophenyl)-1H-pyrrol-2-yl]-2,2-dimethylpropyl}-2-hydroxyacetamide] | 2.5 | 2.5 | 0.41 | 0.41 | 0.27 | 0.46 | 0.17 | 0.33 | largely below the lower limit of quantitation |  |  |  |  |  |  |  |  | 
2 |  |  |  | CCc1c2c(nc3ccccc13)-c1cc3c(c(=O)n1C2)COC(=O)[C@]3(O)CC [Compound 7, 7-ethyl camptothecin, reference compound] | 3.2 | 3.7 | 19 | 22 | 4.6 | 3.8 | 4.2 | 3.8 |  |  |  |  |  |  |  |  |  | 
3 |  |  |  | CCCNC(=O)Nc1cccc(S(=O)(=O)Nc2cccc([C@@H](CC(=O)O)NC(=O)Nc3ccc(NC(=O)NCCOCCOCCOCCC(=O)N[C@@H](CC(N)=O)C(=O)N4CCC[C@H]4C(=O)N[C@H](C(=O)NCCCN(C(=O)CO)[C@@H](c4cc(-c5cc(F)ccc5F)cn4Cc4ccccc4)C(C)(C)C)C(C)C)cc3)c2)c1 [Compound 5] |  |  |  |  |  |  |  |  |  | highly stable | highly stable | highly stable | very slow | 1.09 ± 0.49 | 4.88 ± 4.37 | 5.5 ± 2.35 | 0.6 ± 0.515 | 
4 |  |  |  | CC[C@H](C)[C@@H]([C@@H](CC(=O)N1CCC[C@H]1[C@H](OC)[C@@H](C)C(=O)N[C@H](C)[C@@H](O)c1ccccc1)OC)N(C)C(=O)[C@@H](NC(=O)[C@@H](NC)C(C)C)C(C)C [Compound 9, N-methyl-L-valyl-N-[(3R,4S,5S)-1-{(2S)-2-[(1R,2R)-3-{[(1S,2R)-1-hydroxy-1-phenylpropan-2-yl]amino}-1-methoxy-2-methyl-3-oxopropyl]pyrrolidin-1-yl}-3-methoxy-5-methyl-1-oxoheptan-4-yl]-N-methyl-L-valinamide, reference compound] (H-[NMeV]V[Dil][Dolaproine]-X1) | 4.9 | 5.9 | 0.55 | 0.58 | 0.36 | 0.4 | 0.14 | 0.18 | largely below the lower limit of quantitation |  |  |  |  |  |  |  |  | 
5 |  |  |  | CCCNC(=O)Nc1cccc(S(=O)(=O)Nc2cccc([C@@H](CC(=O)O)NC(=O)Nc3ccc(NC(=O)NCCN(C)CCN(C)CCN(C)CC(=O)N[C@@H](CC(N)=O)C(=O)N4CCC[C@H]4C(=O)N[C@H](C(=O)O[C@]4(CC)C(=O)OCc5c4cc4n(c5=O)Cc5c-4nc4ccccc4c5CC)C(C)C)cc3)c2)c1 [Compound 2] |  |  |  |  |  |  |  |  |  | Very small fractions of a degradation product; also recorded: highly stable | highly stable | Very small fractions of a degradation product; also recorded: highly stable | essentially completely cleaved | 2.52 ± 0.61 | 8.31 ± 5.49 | 2.33 ± 0.44 | 0.627 ± 0.344 | payload/parent AUC ratio ([4]; male Wistar rats, 0.5 mg/kg SMDC i.v., plasma, molar basis): 0.0105; Tumor growth MX-1 (MX-1 TNBC xenograft; 2 days on/5 days off): significant tumor regression; also recorded: complete tumor regression; Body weight loss (MX-1 TNBC xenograft; 2 days on/5 days off, MX-1 model): no significant body weight loss; Tumor growth MX-1 (MX-1 TNBC xenograft; once weekly): tumor stasis; Body weight changes (MX-1 TNBC xenograft; MX-1 model): minor
6 | 3.48 | 30.3 | 8.7 | CNC(=O)[C@@H](N)CCN(C(=O)CO)[C@@H](c1cc(-c2cc(F)ccc2F)cn1Cc1ccccc1)C(C)(C)C [Compound 11, (2S)-2-amino-4-[{(1R)-1-[1-benzyl-4-(2,5-difluorophenyl)-1H-pyrrol-2-yl]-2,2-dimethylpropyl}(glycoloyl)amino]-N-methylbutanamide] | 6 | 6 | 1.4 | 1.2 | 0.97 | 1.8 | 0.53 | 0.31 | largely below the lower limit of quantitation |  |  |  |  |  |  |  |  | 
